Measured values taken from patent US20230278972A1, “SUBSTITUTED HALOALKYL SULFONANILIDE HERBICIDES” (FMC Corporation, priority 2020, published 2023).

Columns and labels:
Assay type in all cases: in vivo
[1] = tested on: galium (catchweed bedstraw, Galium aparine); experiment: Test A1 postemergence, galium; details: Postemergence
Outline: (§1)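 Test compounds were formulated in a non-phytotoxic solvent mixture containing a surfactant. For preemergence, seeds sown in a loam soil–sand blend received a directed soil spray. For postemergence, potted plants in the same soil, 2 to 10 cm tall at the one- to two-leaf stage, were sprayed.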

soybean (Glycine max) [2] = experiment: Test A1 preemergence, soybean
Outline: as §1

[3] = tested on: Foxtail, Giant (giant foxtail, Setaria faberi); experiment: Test A1 postemergence, Foxtail, Giant; details: Postemergence
Outline: as §1

kochia (Bassia scoparia) = experiment: Test A1 postemergence, kochia; details: Postemergence
Outline: as §1

soybean (Glycine max) [4] = experiment: Test A1 postemergence, soybean; details: Postemergence
Outline: as §1

[5] = tested on: Ryegrass, Italian (Italian ryegrass, Lolium multiflorum); experiment: Test A1 preemergence, Ryegrass, Italian
Outline: as §1

[6] = tested on: blackgrass (Alopecurus myosuroides); experiment: Test A1 postemergence, blackgrass; details: Postemergence, 0 to 100 scale (0 no effect, 100 complete control)
Outline: as §1

[7] = tested on: Ryegrass, Italian (Italian ryegrass, Lolium multiflorum); experiment: Test A1 postemergence, Ryegrass, Italian; details: Postemergence
Outline: as §1

corn (Zea mays) = experiment: Test A1 postemergence, corn; details: Postemergence
Outline: as §1

[8] = tested on: Pigweed, Palmer (palmer amaranth, palmer pigweed, Amaranthus palmeri); experiment: Test A1 preemergence, Pigweed, Palmer
Outline: as §1

[9] = 31 g ai/ha, 0 to 100 scale (0 no effect, 100 complete control), 10 days
[10] = 31 g ai/ha, 0 to 100 scale (0 no effect, 100 complete control)
[11] = 125 g ai/ha, 0 to 100 scale, 0 no effect, 100 complete control

Row | Compound | Plant response rating, Galium [1, 9] | Plant response rating, Galium ([1]; 125 g ai/ha, 0 to 100 scale) | Plant response rating, Soybean (soybean (Glycine max) [2]; [10]) | Plant response rating, Soybean (soybean (Glycine max) [2]; [11]) | Plant response rating, Foxtail, Giant [3, 9] | Plant response rating, Foxtail, Giant ([3]; 125 g ai/ha, 0 to 100 scale) | Plant response rating, Kochia (kochia (Bassia scoparia); [9]) | Plant response rating, Kochia (kochia (Bassia scoparia); 125 g ai/ha, 0 to 100 scale) | Plant response rating, Soybean (soybean (Glycine max) [4]; [9]) | Plant response rating, Soybean (soybean (Glycine max) [4]; 125 g ai/ha, 0 to 100 scale) | Plant response rating, Ryegrass, Italian [5, 10] | Plant response rating, Ryegrass, Italian [5, 11] | Plant response rating, Blackgrass ([6]; 31 g ai/ha, 10 days) | Plant response rating, Blackgrass ([6]; 125 g ai/ha) | Plant response rating, Ryegrass, Italian [7, 9] | Plant response rating, Ryegrass, Italian ([7]; 125 g ai/ha, 0 to 100 scale) | Plant response rating, Corn (corn (Zea mays); [9]) | Plant response rating, Corn (corn (Zea mays); 125 g ai/ha, 0 to 100 scale) | Plant response rating, Pigweed, Palmer [8, 10] | Plant response rating, Pigweed, Palmer [8, 11]
1 | Cc1cc(F)c(C2=NOC3CCCC23)cc1NS(=O)(=O)C(F)(F)F (centres unmarked) [Compound 310] | 0 | 0 | 0 | 0 | 0 | 0 | 0 | 20 | 20 | 30 | 40 | 50 | 0 | 0 | 20 | 30 | 0 | 0 | 0 | 70
2 | CCc1cc(C)c(C2=NOC3(CCCC3)C2)cc1NS(=O)(=O)C(F)(F)F [Compound 311] | 0 | 0 | 0 | 0 | 0 | 20 | 0 | 0 | 10 | 40 | 0 | 60 | 0 | 0 | 0 | 0 | 0 | 0 | 30 | 30
3 | COc1cc(C)c(NS(=O)(=O)C(F)(F)F)cc1C1=NOC2CCCC12 (centres unmarked) [Compound 312] | 0 | 30 | 0 | 50 | 0 | 10 | 0 | 0 | 20 | 20 | 0 | 40 | 0 | 0 | 0 | 20 | 0 | 0 | 0 | 0
4 | Cc1cc(C2CC2)c(NS(=O)(=O)C(F)(F)F)cc1C1=NOC2(CCCC2)C1 [Compound 313] | 0 | 30 | 0 | 0 | 0 | 0 | 0 | 20 | 0 | 20 | 30 | 50 | 0 | 0 | 0 | 0 | 0 | 0 | 0 | 20
5 | Cc1cc(C)c(N(COC(=O)OC(C)C)S(=O)(=O)C(F)(F)F)cc1C1=NOC2CCCC12 (centres unmarked) [Compound 314] | 60 | 70 | 20 | 40 | 10 | 30 | 30 | 70 | 40 | 50 | 40 | 90 | 0 | 10 | 10 | 70 | 0 | 30 | 70 | 70
6 | Cc1cc(C)c(N(COC(=O)OC(C)(C)C)S(=O)(=O)C(F)(F)F)cc1C1=NOC2CCCC12 (centres unmarked) [Compound 316] | 40 | 50 | 0 | 0 | 0 | 0 | 30 | 70 | 10 | 50 | 30 | 50 | 0 | 0 | 0 | 30 | 0 | 0 | 40 | 50
7 | Cc1cc(C)c(N(COC(=O)N(C)C)S(=O)(=O)C(F)(F)F)cc1C1=NOC2CCCC12 (centres unmarked) [Compound 317] | 0 | 0 | 0 | 0 | 0 | 0 | 0 | 0 | 0 | 0 | 0 | 0 | 0 | 0 | 0 | 0 | 0 | 0 | 0 | 0
